{"source": "paper PMC8761715", "about": "(Clinical Pharmacokinetics, 2021)", "key": {"[1]": {"conditions": "cited from earlier work"}, "[2]": {"conditions": "cited from earlier work", "remark": "listed apart in the source"}, "[3]": {"experiment": "Pharmacokinetics of microdosed edoxaban"}, "[4]": {"conditions": "cited from earlier work", "remark": "listed apart in the source"}, "CYP3A": {"test_system": "CYP3A", "conditions": "cited from earlier work"}, "P-gp/BCRP": {"test_system": "P-gp/BCRP", "conditions": "cited from earlier work"}, "CYP2C19": {"test_system": "CYP2C19", "conditions": "cited from earlier work"}, "CYP2C9": {"test_system": "CYP2C9", "conditions": "cited from earlier work"}, "CYP2D6": {"test_system": "CYP2D6", "conditions": "multiple doses of isavuconazole; cited from earlier work"}, "[5]": {"experiment": "Pharmacokinetics of microdosed rivaroxaban", "conditions": "rivaroxaban 25 µg microdose with the azole named as label, vs baseline"}, "[6]": {"experiment": "Plasma pharmacokinetics of the azole antifungals", "format": "in vivo, human", "conditions": "after first 200 mg dose, fasting; LLOQ 0.1 µg/mL"}, "CYP2J2": {"test_system": "CYP2J2", "conditions": "cited from earlier work"}, "[7]": {"conditions": "posaconazole as tablets; general statement, ref not given; cited from earlier work"}, "[8]": {"conditions": "rivaroxaban with more than one combined P-gp and CYP3A4 inhibitor; atrial fibrillation patients; 95% CI 1.01–1.85, p = 0.04; cited from earlier work"}}, "data": [{"smiles": "COc1ccc(-n2nc(C(N)=O)c3c2C(=O)N(c2ccc(N4CCCCC4=O)cc2)CC3)cc1", "note": "[Apixaban, apixaban]", "values": [{"measurement": "Contribution of CYP enzymes other than CYP3A to overall elimination of apixaban", "setting": "[1]", "result": 6, "unit": "%"}]}, {"smiles": "CN1CCc2nc(C(=O)N[C@@H]3C[C@@H](C(=O)N(C)C)CC[C@@H]3NC(=O)C(=O)Nc3ccc(Cl)cn3)sc2C1", "note": "[Edoxaban, edoxaban]", "values": [{"measurement": "Edoxaban individual CL/F, range of previous study", "setting": "[2]; 18 study participants", "result": "490 to 1460", "unit": "mL/min"}, {"measurement": "Edoxaban bioavailability", "setting": "[2]", "result": "approximately 62%"}, {"measurement": "Edoxaban dose eliminated unchanged in the urine", "setting": "[2]", "result": "approximately 24%"}, {"measurement": "Edoxaban dose excreted unchanged in the faeces", "setting": "[2]", "result": "About 50%"}, {"measurement": "Part of edoxaban elimination by CYP-mediated metabolism", "setting": "[2]", "result": "< 4", "unit": "%"}, {"measurement": "Average CL/F of edoxaban higher than published values", "setting": "[3]; compared with 18 study participants of ref 24", "result": 30, "unit": "%"}, {"measurement": "Edoxaban individual CL/F, observed range", "setting": "[3]; this study, 50 µg microdose", "result": "600 to 2200", "unit": "mL/min"}]}, {"smiles": "OC(Cn1cncn1)(Cn1cncn1)c1ccc(F)cc1F", "note": "[Fluconazole, fluconazole]", "values": [{"measurement": "Rivaroxaban CL/F reduction with fluconazole, published", "setting": "[4]; therapeutic dose of rivaroxaban, 4 days pre-exposure", "result": 29, "unit": "%"}, {"measurement": "CYP3A inhibitor classification", "setting": "CYP3A", "result": "Mainly moderate"}, {"measurement": "P-gp/BCRP inhibitor classification", "setting": "P-gp/BCRP", "result": "not P-gp/BCRP, inhibitor"}, {"measurement": "CYP2C19 inhibitor classification", "setting": "CYP2C19", "result": "strong"}, {"measurement": "CYP2C9 inhibitor classification", "setting": "CYP2C9", "result": "moderate"}]}, {"smiles": "C[C@@H](c1nc(-c2ccc(C#N)cc2)cs1)[C@](O)(Cn1cncn1)c1cc(F)ccc1F", "note": "[Isavuconazole, isavuconazole]", "values": [{"measurement": "Increase in dextromethorphan exposure", "setting": "CYP2D6", "result": "< 20", "unit": "%"}, {"measurement": "CYP3A inhibitor classification", "setting": "CYP3A", "result": "Weak to moderate"}, {"measurement": "P-gp/BCRP inhibitor classification", "setting": "P-gp/BCRP", "result": "P-gp inhibitor, but not BCRP inhibitor"}, {"measurement": "Effect of azole on rivaroxaban pharmacokinetics (in words)", "setting": "[5]", "result": "did not alter any pharmacokinetic parameters"}]}, {"smiles": "CCC(C)n1ncn(-c2ccc(N3CCN(c4ccc(OCC5COC(Cn6cncn6)(c6ccc(Cl)cc6Cl)O5)cc4)CC3)cc2)c1=O", "note": "(stereo not drawn) [Itraconazole, itraconazole]", "values": [{"measurement": "Azole plasma concentrations (in words)", "setting": "[6]", "result": "below the LLOQ"}, {"measurement": "CYP3A inhibitor classification", "setting": "CYP3A", "result": "Strong"}, {"measurement": "P-gp/BCRP inhibitor classification", "setting": "P-gp/BCRP", "result": "P-gp/BCRP inhibitor"}]}, {"smiles": "CC(=O)N1CCN(c2ccc(OCC3COC(Cn4ccnc4)(c4ccc(Cl)cc4Cl)O3)cc2)CC1", "note": "(stereo not drawn) [Ketoconazole, ketoconazole]", "values": [{"measurement": "Apixaban Cmax increase with ketoconazole, published", "setting": "[1]; similar perpetrator dose, longer pretreatment", "result": 1.6, "unit": "fold"}, {"measurement": "Edoxaban AUC increase with ketoconazole, published", "setting": "[2]", "result": 1.9, "unit": "fold"}, {"measurement": "Rivaroxaban AUC increase with ketoconazole, published", "setting": "[4]", "result": 2.6, "unit": "fold"}, {"measurement": "CYP3A inhibitor classification", "setting": "CYP3A", "result": "Strong"}, {"measurement": "CYP2J2 inhibitor classification", "setting": "CYP2J2", "result": "potent inhibitor"}]}, {"smiles": "CC[C@@H]([C@H](C)O)n1ncn(-c2ccc(N3CCN(c4ccc(OC[C@@H]5CO[C@@](Cn6cncn6)(c6ccc(F)cc6F)C5)cc4)CC3)cc2)c1=O", "note": "[Posaconazole, posaconazole]", "values": [{"measurement": "Time at which maximum plasma concentrations are reached (tmax)", "setting": "[7]", "result": "4 to 5", "unit": "h"}, {"measurement": "CYP3A inhibitor classification", "setting": "CYP3A", "result": "Strong"}, {"measurement": "P-gp/BCRP inhibitor classification", "setting": "P-gp/BCRP", "result": "in vitro P-gp/BCRP inhibitor"}]}, {"smiles": "O=C(NC[C@H]1CN(c2ccc(N3CCOCC3=O)cc2)C(=O)O1)c1ccc(Cl)s1", "note": "[Rivaroxaban, rivaroxaban]", "values": [{"measurement": "Rivaroxaban P-gp/BCRP-dependent active renal secretion", "setting": "[4]", "result": "approximately 30 % of a dose"}, {"measurement": "Rivaroxaban bioavailability", "setting": "[4]", "result": "80–100%"}, {"measurement": "Rivaroxaban partial clearance by non-enzymatic hydrolysis", "setting": "[4]", "result": "approximately 14%"}, {"measurement": "Rivaroxaban partial clearance mediated by CYP2J2", "setting": "[4]", "result": "approximately 14%"}, {"measurement": "Rivaroxaban partial clearance mediated by CYP3A", "setting": "[4]", "result": "approximately 18 % of a dose"}, {"measurement": "Bleeding risk ratio (RR) compared with warfarin", "setting": "[8]", "result": 1.37}]}, {"smiles": "C[C@@H](c1ncncc1F)[C@](O)(Cn1cncn1)c1ccc(F)cc1F", "note": "[Voriconazole, voriconazole]", "values": [{"measurement": "CYP3A inhibitor classification", "setting": "CYP3A", "result": "Strong"}, {"measurement": "P-gp/BCRP inhibitor classification", "setting": "P-gp/BCRP", "result": "not P-gp/BCRP, inhibitor"}]}]}
